Measured values taken from ChEMBL document CHEMBL5352480, “Discovery of potent 1,1-diarylthiogalactoside glycomimetic inhibitors of Pseudomonas aeruginosa LecA with antibiofilm properties” (Eur J Med Chem, 2023).

Key:
MRC5 [1] = test: Cytotoxicity against human MRC5 cells assessed as cell viability at 2.5 mM measured after 24 hrs by MTT assay; details: mrc5, 24 h, 2500 µM
Pseudomonas aeruginosa [2] = test: Bactericidal activity against Pseudomonas aeruginosa PAO1; format: functional
Pseudomonas aeruginosa [3] = test: Antibiofilm activity against Pseudomonas aeruginosa PA01 (CIP 104116) assessed as inhibition of biofilm formation measured after 2 to 24 hrs; format: functional, organism-based; details: dose 0.08-5 mM, time 2-24 hrs
[4] = target: T1, PA-I galactophilic lectin (Pseudomonas aeruginosa (strain ATCC 15692 / PAO1 / 1C / PRS 101 / LMG12228), UniProt Q05097); test: Binding affinity to Pseudomonas aeruginosa LecA expressed in Escherichia coli BL21 (DE3) cells assessed as dissociation constant by isothermal titration calorimetry
T1 sequence (Q05097 whole entry): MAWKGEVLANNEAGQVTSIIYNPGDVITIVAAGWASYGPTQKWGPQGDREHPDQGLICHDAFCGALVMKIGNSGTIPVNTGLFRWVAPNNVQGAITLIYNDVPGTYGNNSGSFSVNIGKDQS

MRC5 [5] = test: Cytotoxicity against human MRC5 cells assessed as reduction in cell viability at 1.25 mM measured after 24 hrs by MTT assay; format: toxicity, cell-based; details: mrc5, 24 h, 1250 µM
MRC5 [6] = test: Cytotoxicity against human MRC5 cells assessed as cell viability at 5 mM measured after 24 hrs by MTT assay; details: mrc5, 24 h, 5000 µM
MRC5 [7] = test: Cytotoxicity against human MRC5 cells assessed as reduction in cell viability at upto 1.25 mM measured after 24 hrs by MTT assay; format: toxicity, cell-based; details: mrc5, 24 h, 1250 µM
[8] = target: T2, PA-I galactophilic lectin (Pseudomonas aeruginosa (strain ATCC 15692 / PAO1 / 1C / PRS 101 / LMG12228)) (UniProt Q05097); test: Binding affinity to Pseudomonas aeruginosa LecA expressed in Escherichia coli BL21 (DE3) cells assessed as gibbs free energy change by isothermal titration calorimetry
T2 sequence (whole entry): T1 sequence (Q05097 whole entry)

Pseudomonas aeruginosa [9] = test: Antibiofilm activity against Pseudomonas aeruginosa PA01 (CIP 104116) assessed as inhibition of biofilm formation at 0.08 to 5 mM measured after 2 to 24 hrs relative to control; format: functional; parameters: scale not given: the % may be the effect or the level left; details: dose 0.08-5 mM, time 2-24 hrs
Pseudomonas aeruginosa [10] = test: Antibacterial activity against Pseudomonas aeruginosa PAO1; format: functional
[11] = target: T2, PA-I galactophilic lectin (Pseudomonas aeruginosa (strain ATCC 15692 / PAO1 / 1C / PRS 101 / LMG12228)); test: Binding affinity to Pseudomonas aeruginosa LecA expressed in Escherichia coli BL21 (DE3) cells assessed as change in entropy by isothermal titration calorimetry
[12] = target: T2, PA-I galactophilic lectin (Pseudomonas aeruginosa (strain ATCC 15692 / PAO1 / 1C / PRS 101 / LMG12228)); test: Binding affinity to Pseudomonas aeruginosa LecA expressed in Escherichia coli BL21 (DE3) cells assessed as change in enthalpy by isothermal titration calorimetry
[13] = target: T1, PA-I galactophilic lectin; test: Binding affinity to Pseudomonas aeruginosa LecA assessed as dissociation constant by isothermal titration calorimetry
[14] = target: T1, PA-I galactophilic lectin; test: Binding affinity to Pseudomonas aeruginosa LecA
Pseudomonas aeruginosa [15] = test: Antibiofilm activity against Pseudomonas aeruginosa PA01 (CIP 104116) assessed as log reduction of biofilm formation at 5 mM measured after 2 to 24 hrs; format: functional; details: time 2-24 hrs
Pseudomonas aeruginosa [16] = test: Antibiofilm activity against Pseudomonas aeruginosa PA01 (CIP 104116) assessed as inhibition of biofilm formation at 5 mM measured after 2 to 24 hrs relative to control; format: functional; parameters: scale not given: the % may be the effect or the level left; details: time 2-24 hrs

SMILES | Kd [4] [µM] | deltaG [8] [kcal/mol] | TdeltaS [11] [kcal/mol] | deltaH [12] [kcal/mol] | other results
COc1ccc(C(=O)c2cc(OC)c(OC)c(OC)c2)cc1S[C@@H]1O[C@H](CO)[C@H](O)[C@H](O)[C@H]1O | 1.02 | -8.17 | -4.85 | -13 | viability (MRC5 [1]): 41.1%; MBC (Pseudomonas aeruginosa [2]): > 5 mM; Activity (Pseudomonas aeruginosa [3]): Dose-Dependent Effect; viability (MRC5 [5]): 61.5%; viability (MRC5 [6]): 7.1%; Activity (MRC5 [7]): Non-Toxic; Activity (Pseudomonas aeruginosa [9]): 100%; MIC (Pseudomonas aeruginosa [10]): > 5 mM
C=C(c1cc(OC)c(OC)c(OC)c1)c1ccc(OC)c(S[C@@H]2O[C@H](CO)[C@H](O)[C@H](O)[C@H]2OC(C)=O)c1 | 6.9 | -7.03 | -1.58 | -8.6 | –
C=C(c1ccc(S[C@@H]2O[C@H](CO)[C@H](O)[C@H](O)[C@H]2O)cc1)c1ccc2ccccc2c1 | 9 | -6.88 | -1.53 | -8.41 | –
C=C(c1ccc(OC)cc1)c1cccc(S[C@@H]2O[C@H](CO)[C@H](O)[C@H](O)[C@H]2O)c1 | 8.1 | -6.96 | -4.13 | -11.1 | –
OC[C@H]1O[C@@H](OCc2cn([C@@H]3[C@H](O)[C@@H](O)[C@H](c4cn([C@H]5[C@H](O)[C@@H](O)[C@H](n6cc([C@@H]7O[C@H](CO)[C@@H](n8cc(CO[C@@H]9O[C@H](CO)[C@H](O)[C@H](O)[C@H]9O)nn8)[C@H](O)[C@H]7O)nn6)O[C@@H]5CO)nn4)O[C@@H]3CO)nn2)[C@H](O)[C@@H](O)[C@H]1O | – | – | – | – | Kd [13]: 0.028 µM
CC(C)(C)c1cc2c(OCc3cn(CCOCCOCCO[C@@H]4O[C@H](CO)[C@H](O)[C@H](O)[C@H]4O)nn3)c(c1)Cc1cc(C(C)(C)C)cc(c1OCc1cn(CCOCCOCCO[C@@H]3O[C@H](CO)[C@H](O)[C@H](O)[C@H]3O)nn1)Cc1cc(C(C)(C)C)cc(c1OCc1cn(CCOCCOCCO[C@@H]3O[C@H](CO)[C@H](O)[C@H](O)[C@H]3O)nn1)Cc1cc(C(C)(C)C)cc(c1OCc1cn(CCOCCOCCO[C@@H]3O[C@H](CO)[C@H](O)[C@H](O)[C@H]3O)nn1)C2 | – | – | – | – | Kd [14]: 0.176 µM
CC(C)S[C@@H]1O[C@H](CO)[C@H](O)[C@H](O)[C@H]1O | – | – | – | – | Kd [13]: 32.4 µM
O=Cc1ccc(S[C@@H]2O[C@H](CO)[C@H](O)[C@H](O)[C@H]2O)cc1 | 9.2 | -6.86 | -2.99 | -9.85 | –
COc1ccc(S[C@@H]2O[C@H](CO)[C@H](O)[C@H](O)[C@H]2O)cc1 | 11.9 | -6.72 | -3.39 | -10.1 | –
C=C(c1ccc(S[C@@H]2O[C@H](CO)[C@H](O)[C@H](O)[C@H]2O)cc1)c1cccc(S[C@H]2O[C@@H](CO)[C@@H](O)[C@@H](O)[C@@H]2O)c1 (single isomer, unassigned) | 0.16 | -9.25 | -12.3 | -21.6 | viability (MRC5 [1]): 65.1%; MBC (Pseudomonas aeruginosa [2]): > 5 mM; log(activity) (Pseudomonas aeruginosa [15]): 1; Activity (Pseudomonas aeruginosa [16]): 90%; viability (MRC5 [5]): 91.4%; viability (MRC5 [6]): 5.2%; Activity (MRC5 [7]): Non-Toxic; MIC (Pseudomonas aeruginosa [10]): > 5 mM
Cc1cc(=O)oc2cc(S[C@@H]3O[C@H](CO)[C@H](O)[C@H](O)[C@H]3O)ccc12 | – | – | – | – | Kd [13]: 5.4 µM
C=C(c1ccc(OC)cc1)c1ccc(S[C@@H]2O[C@H](CO)[C@H](O)[C@H](O)[C@H]2O)cc1 | 3 | -7.55 | -3.59 | -11.1 | –
CC(C)c1ccc(S[C@@H]2O[C@H](CO)[C@H](O)[C@H](O)[C@H]2O)cc1 | 2.45 | -7.65 | -4.28 | -11.9 | –
